Test results from ChEMBL document CHEMBL1201862, “PubChem BioAssay data set” (2004).
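48-hour exposure; five concentrations; linearly interpolated endpoints. GI50 is the concentration that inhibits growth by half.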 Calls of active or inactive are those of the source. Rule as the data show it: active = GI50 up to about 1.1 µM and inactive = higher.

Key:
Test in all cases: NCI anticancer screen, dose series, 48 h
MDA-MB-435 = system: MDA-MB-435
RXF 393 = system: RXF 393
SK-MEL-28 = system: SK-MEL-28
K562 = system: K562
HCT-15 = system: HCT-15
NCI/ADR-RES = system: NCI/ADR-RES
786-0 = system: 786-0
HOP-92 = system: HOP-92
MCF7 = system: MCF7
OVCAR-8 = system: OVCAR-8
LOX IMVI = system: LOX IMVI
SK-MEL-2 = system: SK-MEL-2
A549 = system: A549
HL-60 = system: HL-60
HCC 2998 = system: HCC 2998
SW-620 = system: SW-620
KM12 = system: KM12
EKVX = system: EKVX
SR = system: SR
OVCAR-5 = system: OVCAR-5
MDA-N = system: MDA-N
SNB-75 = system: SNB-75
Hs-578T = system: Hs-578T
MOLT-4 = system: MOLT-4
M14 = system: M14
RPMI-8226 = system: RPMI-8226
ACHN = system: ACHN
HT-29 = system: HT-29
SN12C = system: SN12C
SK-OV-3 = system: SK-OV-3
NCI-H226 = system: NCI-H226
OVCAR-3 = system: OVCAR-3
UACC-257 = system: UACC-257
CAKI-1 = system: CAKI-1
UACC-62 = system: UACC-62
SNB-19 = system: SNB-19
TK-10 = system: TK-10
A498 = system: A498
UO-31 = system: UO-31
SK-MEL-5 = system: SK-MEL-5
NCI-H522 = system: NCI-H522
BT-549 = system: BT-549
HCT-116 = system: HCT-116
OVCAR-4 = system: OVCAR-4
SF-295 = system: SF-295
SF-268 = system: SF-268
Malme-3M = system: Malme-3M
NCI-H23 = system: NCI-H23
T47D = system: T47D
DU-145 = system: DU-145
IGROV-1 = system: IGROV-1
PC-3 = system: PC-3
HOP-62 = system: HOP-62
NCI-H460 = system: NCI-H460
U-251 = system: U-251
SF-539 = system: SF-539
CCRF-CEM = system: CCRF-CEM
COLO 205 = system: COLO 205
MDA-MB-231 = system: MDA-MB-231

Cc1c2cccc-2c(OCCOC(=O)n2ccnc2)cc2c1[nH]c1ccccc12
GI50 (MDA-MB-435): 3.12 µM (inactive)
GI50 (RXF 393): 2.57 µM (inactive)
GI50 (SK-MEL-28): 2.02 µM (inactive)
GI50 (K562): 4.01 µM (inactive)
GI50 (HCT-15): 2200 nM
GI50 (NCI/ADR-RES): 2.82 µM (inactive)
GI50 (786-0): 3.87 µM (inactive)
GI50 (HOP-92): 1.7 µM (inactive)
GI50 (MCF7): 3.24 µM (inactive)
GI50 (OVCAR-8): 2.18 µM (inactive)
GI50 (LOX IMVI): 1.89 µM (inactive)
GI50 (SK-MEL-2): 1.98 µM (inactive)
GI50 (A549): 3.42 µM (inactive)
GI50 (HL-60): 2.12 µM (inactive)
GI50 (HCC 2998): 2.82 µM (inactive)
GI50 (SW-620): 3.08 µM (inactive)
GI50 (KM12): 2.14 µM (inactive)
GI50 (EKVX): 1.04 µM (active)
GI50 (SR): 3.31 µM (inactive)
GI50 (OVCAR-5): 2.55 µM (inactive)
GI50 (MDA-N): 4.8 µM (inactive)
GI50 (SNB-75): 1.04 µM (active)
GI50 (Hs-578T): 3.55 µM (inactive)
GI50 (MOLT-4): 4.12 µM (inactive)
GI50 (M14): 3.46 µM (inactive)
GI50 (RPMI-8226): 3.48 µM (inactive)
GI50 (ACHN): 2.56 µM (inactive)
GI50 (HT-29): 2.27 µM (inactive)
GI50 (SN12C): 2.58 µM (inactive)
GI50 (SK-OV-3): 4.74 µM (inactive)
GI50 (NCI-H226): 2.39 µM (inactive)
GI50 (OVCAR-3): 1.89 µM (inactive)
GI50 (UACC-257): 2.73 µM (inactive)
GI50 (CAKI-1): 3.66 µM (inactive)
GI50 (UACC-62): 2.62 µM (inactive)
GI50 (SNB-19): 2.65 µM (inactive)
GI50 (TK-10): 3.85 µM (inactive)
GI50 (A498): 6.52 µM (inactive)
GI50 (UO-31): 1.84 µM (inactive)
GI50 (SK-MEL-5): 2.42 µM (inactive)
GI50 (NCI-H522): 2.14 µM (inactive)
GI50 (BT-549): 2.89 µM (inactive)
GI50 (HCT-116): 3.33 µM (inactive)
GI50 (OVCAR-4): 2.32 µM (inactive)
GI50 (SF-295): 2.96 µM (inactive)
GI50 (SF-268): 2.6 µM (inactive)
GI50 (Malme-3M): 2.79 µM (inactive)
GI50 (NCI-H23): 2.44 µM (inactive)
GI50 (T47D): 2.49 µM (inactive)
GI50 (DU-145): 6.24 µM (inactive)
GI50 (IGROV-1): 1.77 µM (inactive)
GI50 (PC-3): 1.75 µM (inactive)
GI50 (HOP-62): 5.48 µM (inactive)
GI50 (NCI-H460): 3.9 µM (inactive)

Cc1cc(O)c2c(c1)C(C1c3cccc(O)c3C(=O)c3c(O)cc(C)cc31)c1cccc(O)c1C2=O (configuration not stated)
GI50 (MDA-MB-435): 0.34 µM (active)
GI50 (RXF 393): 0.22 µM (active)
GI50 (SK-MEL-28): 0.394 µM (active)
GI50 (K562): 1.02 µM (active)
GI50 (HCT-15): 317 nM
GI50 (NCI/ADR-RES): 0.319 µM (active)
GI50 (786-0): 0.466 µM (active)
GI50 (U-251): 310 nM (active)
GI50 (HOP-92): 0.258 µM (active)
GI50 (MCF7): 0.331 µM (active)
GI50 (OVCAR-8): 0.335 µM (active)
GI50 (LOX IMVI): 0.354 µM (active)
GI50 (SK-MEL-2): 0.294 µM (active)
GI50 (A549): 0.239 µM (active)
GI50 (SF-539): 210 nM (active)
GI50 (HL-60): 0.879 µM (active)
GI50 (HCC 2998): 1.1 µM (active)
GI50 (SW-620): 0.448 µM (active)
GI50 (KM12): 0.166 µM (active)
GI50 (EKVX): 0.417 µM (active)
GI50 (SR): 0.345 µM (active)
GI50 (OVCAR-5): 0.766 µM (active)
GI50 (MDA-N): 0.705 µM (active)
GI50 (SNB-75): 0.243 µM (active)
GI50 (Hs-578T): 0.175 µM (active)
GI50 (MOLT-4): 0.615 µM (active)
GI50 (M14): 0.327 µM (active)
GI50 (RPMI-8226): 0.158 µM (active)
GI50 (ACHN): 0.337 µM (active)
GI50 (HT-29): 0.378 µM (active)
GI50 (SN12C): 0.322 µM (active)
GI50 (SK-OV-3): 0.356 µM (active)
GI50 (NCI-H226): 0.605 µM (active)
GI50 (OVCAR-3): 0.25 µM (active)
GI50 (UACC-257): 0.3 µM (active)
GI50 (CAKI-1): 2.86 µM (inactive)
GI50 (UACC-62): 0.269 µM (active)
GI50 (SNB-19): 0.239 µM (active)
GI50 (CCRF-CEM): 906 nM (active)
GI50 (TK-10): 0.598 µM (active)
GI50 (UO-31): 0.306 µM (active)
GI50 (SK-MEL-5): 0.212 µM (active)
GI50 (COLO 205): 177 nM (active)
GI50 (NCI-H522): 0.417 µM (active)
GI50 (MDA-MB-231): 405 nM (active)
GI50 (BT-549): 0.292 µM (active)
GI50 (HCT-116): 0.314 µM (active)
GI50 (OVCAR-4): 0.26 µM (active)
GI50 (SF-295): 0.286 µM (active)
GI50 (SF-268): 0.311 µM (active)
GI50 (Malme-3M): 0.329 µM (active)
GI50 (NCI-H23): 0.37 µM (active)
GI50 (T47D): 0.631 µM (active)
GI50 (DU-145): 0.4 µM (active)
GI50 (IGROV-1): 0.378 µM (active)
GI50 (PC-3): 0.105 µM (active)
GI50 (HOP-62): 0.432 µM (active)
GI50 (NCI-H460): 0.198 µM (active)
